How the values were obtained:
Assay type in all cases: cell-based, human
HCT-116 cells = assay: Apoptosis and cell cycle by PI staining / FACS in HCT-116 cells; settings: for Apoptosis (PI Staining), relative apoptosis ratio over vehicle: HCT-116, 48 hr in presence of serum, maximally effective concentration, FACS
Description: To determine whether NAG-1 gene expression is associated with NSAID-induced apoptosis or altered cell cycle kinetics, flow cytometric analysis of the distribution of cells at various stages of the cell cycle was performed. Apoptosis and cell cycle kinetics of INDO-treated HCT-116 cells were measured at different time points. HCT-116 cells were treated with INDO, stained with PI, and analyzed by flow cytometry. Seven thousand five hundred cells were examined by flow cytometry by gating on an area versus width dot plot to exclude cell debris and cell aggregates. Apoptosis is represented by the fold increase in sub-G1 population over 0 hr treatment.
The DNA content for NSAIDs, PPARγ ligand, and vehicle treated HCT-116 cells was determined by FACS. Cells were plated at a density of 4×10^5 cells/well in 2 ml of medium in 6 well plates, incubated for 16 h, and then treated with NSAIDs or TGZ in the presence of serum. After treatment, the cells were harvested, washed with PBS, fixed by the slow addition of cold 70% ethanol to a total of 1 ml, and stored overnight at 4° C. The fixed cells were pelleted, washed once with PBS, and stained in 1 ml of 20 μg/ml of propidium iodide (PI), 1 mg/ml RNase in PBS for 20 min. Seven thousand five hundred cells were examined by flow cytometry using Becton Dickinson FACSort equipped with CellQuest software, by gating on an area versus width dot plot to exclude cell debris and cell aggregates. Each cell cycle distribution was analyzed by the McCycle program using one cell cycle parameter. Apoptosis was measured based on the level of sub-diploid DNA contained in cells following treatment with NSAIDs or TGZ using CellQuest software.
Northern analysis was performed using NAG-1 and β-actin as probes. The data represent relative expression of NAG-1 mRNA over the control (1.0). Each NSAID was tested at 3 different concentrations and maximally effective concentration used for apoptosis determination. Apoptosis ratio by PI staining was measured by FACS. […] The data represent relative apoptosis ratio over vehicle treatment by PI staining methods. TACS™ Annexin V-FITC kit was also used to confirm apoptosis.

NAG-1 [1] = assay: Northern blot analysis of NAG-1 mRNA expression in HCT-116 cells; settings: for NAG-1 Induction (mRNA) Fold: HCT-116, 24 hr in absence of serum, relative NAG-1 mRNA over vehicle control (1.0), tested over the concentration range listed; for NAG-1 expression induction: HCT-116, at any concentration tested
Description: Upon reaching 60–80% confluence in 10 cm plates, the cells were treated at indicated concentrations and times with either different NSAIDs or PPARγ ligands in the absence of serum. Total RNAs were isolated using TRIzol reagent (Life Technologies) according to the manufacturer's protocol. For Northern blot analysis, […] of total RNA was denatured at 55° C. for 15 min and separated in a 1.2% agarose gel containing 2.2 M formaldehyde, and transferred to Hybond-N membrane ([…]). After fixing the membrane by UV, blots were prehybridized in hybridization solution (Rapid-hyb buffer, […]) for 1 hr at 65° C. followed by hybridization with cDNA labeled with [α-^32P]dCTP by random primer extension (DECAprimeII kit, Ambion). The probes used were either full-length NAG-1 fragment or PTGFB clone (generously provided by Dr. Bento-Soar of the University of Iowa). After 4 hr incubation at 65° C., the blots were washed once with 2×SSC/0.1% SDS at RT and twice with 0.1×SSC/0.1% SDS at 65° C. Messenger RNA abundance Was estimated by intensities of the hybridization bands of autoradiographs using Scion Image (Scion). Equivalent loading of RNA samples was confirmed by hybridizing the same blot with a ^32P-labeled b-actin probe which recognizes RNA of approximately 2 kb.
To determine whether other NSAIDs increased apoptosis and NAG-1 expression, tests were conducted to determine whether variants of NSAIDs induced NAG-1 gene expression and NSAID-induced apoptosis. Aspirin, ibuprofen, indomethacin, and sulindac sulfide were selected since they are known COX inhibitors. […] HCT-116 cells were treated with different NSAIDs (vehicle, 0.2% DMSO; aspirin, 10 mM; ibuprofen, 1 mM; sodium salicylate, 5 mM; sulindac sulfide, 50 μM; sulindac, 40 μM; acetaminophen, 100 μM) for 24 hr in the absence of serum. Northern analysis was performed using NAG-1 and β-actin as probes. Total RNAs were isolated from NSAID-treated HCT-116 cells after 24 hr treatment and Northern blot was performed using NAG-1 cDNA as a probe (data not shown). […] Each of the doses were as follows: aspirin (1, 5, 10 mM); ibuprofen (100, 500, 1000 μM); salicylate (1, 2.5, 5 mM); sulindac sulfide (1, 10, 50 μM); sulindac (10, 20, 40 μM); acetaminophen (10, 50, 100 μM). After 48 hr treatment with NSAIDs in the presence of serum, cells were harvested and assayed as described in FIG. 1C. Apoptosis detected by PI staining was measured by FACS, as known in the art (FIG. 2A; HCT-116 cells were treated with different NSAIDs (vehicle, 0.2% DMSO; Aspirin, 10 mM; Ibuprofen, 1 mM; Sodium Salicylate, 5 mM; Sulindac Sulfide, 50 μM; Sulindac, 40 μM; Acetaminophen, 100 μM) for 24 hr in the absence of serum. Northern analysis was performed using NAG-1 and β-actin as probes. The open bars represent the relative expression of NAG-1 mRNA over the control (vehicle). The hatched bars represent the relative apoptosis ratio over vehicle treatment by PI staining methods. N=3±S.D.).
In the Table below, HCT-116 cells were treated with different NSAIDs (vehicle, 0.2% DMSO) for 24 hr in the absence of serum. Northern analysis was performed using NAG-1 and β-actin as probes. The data represent relative expression of NAG-1 mRNA over the control (1.0). Each NSAID was tested at 3 different concentrations and maximally effective concentration used for apoptosis determination. Apoptosis ratio by PI staining was measured by FACS. After 48 hr treatment with NSAIDs in the presence of serum, cells were harvested and assayed. The data represent relative apoptosis ratio over vehicle treatment by PI staining methods. TACS™ Annexin V-FITC kit was also used to confirm apoptosis.

NAG-1 promoter = NAG-1 promoter (pNAG2021) luciferase reporter assay in transiently transfected HCT-116 cells; settings: pNAG2021 in HCT-116, 24 hr; TGZ 10 μM, sulindac 40 μM, acetaminophen 100 μM, other NSAIDs; versus vehicle
NAG-1 [2] = assay: Northern blot NAG-1 induction in PC-3 prostate cells; settings: PC-3 cells, 10 mM, 24 hr
Description: (§1) NSAID-induced apoptosis is not restricted to colorectal cells, as NSAIDs can induce apoptosis in breast, lung, leukemia, and prostate cell lines. To test for the induction of NAG-1 by NSAIDs in different cell lines, A549 lung epithelial cells, MCF-7 mammary cells, PC-3 prostate cancer cells, and U937 leukemia cell lines were treated with several concentrations of INDO and aspirin. Then, as described above, Northern blot analysis was performed. […] Quiescent cells were grown for 24 hr in the presence of indicated NSAIDs. Total RNAs were isolated and subjected to Northern analysis using NAG-1 and β-actin as probes. The blots contained 10 μg of total RNA from INDO- or Aspirin (Asp)-treated cells with indicated doses. “V” indicates total RNAs from vehicle (0.2% DMSO) treated cells. The results shown are representative of those obtained in two experiments.

NAG-1 [3] = assay: Northern blot NAG-1 induction in MCF-7 breast carcinoma cells; settings: MCF-7 cells, 10 mM, 24 hr
Description: as §1

NAG-1 [4] = assay: Northern blot NAG-1 induction in U937 leukemia cells; settings: 24 hr
Description: as §1

NAG-1 [5] = assay: Northern blot NAG-1 induction in A549 lung carcinoma cells; settings: 10 mM, 24 hr
Description: as §1

NAG-1 [6] = assay: Western blot analysis of secreted NAG-1 protein from HCT-116 cells; settings: HCT-116, 5 μM TGZ
Description: The level of secreted NAG-1 was evaluated using Western blot analysis with anti-human-NAG-1 antibody (generously provided by Dr. Paralkar of Pfizer). HCT-116 cells were grown to 60–80% confluency in 10 cm plates followed by 48 hr treatment in the absence of serum with either NSAIDs or TGZ. The media were harvested and concentrated approximately 15-fold using Centriprep 10 concentrators (Amicon). Proteins (30 μg) were separated by 15% SDS-PAGE and transferred for 1 hr onto nitrocellulose membrane (Schleicher & Schuell). The blots were blocked for 1 hr with 5% skim milk in TBS/Tween 0.05%, and probed with anti-NAG-1 antibody (1 μg/ml in TBS-0.2%-Tween20) at […] overnight. After washing, the blots were treated with horseradish peroxidase-conjugated secondary antibody for 1 hr and washed several times. The signal was detected by enhanced chemiluminescence system (AMERSHAM) and autoradiography.
HCT-116 cells were treated with 100 μM INDO in the absence of serum for various times. In FIG. 1B, left panel. 10 μg of total RNA was loaded in each lane. Northern blotting was performed using the NAG-1 probe and re-probed with β-actin probe. The hybridization signals were quantitated using Scion Image software (Scion). Levels of the 1.3 kb NAG-1 transcript were normalized to the levels of β-actin transcripts and represented relative to 0 hr treatment. […] The signal was detected by ECL reagent (AMERSHAM).

SMILES	Apoptosis (PI Staining), relative apoptosis ratio over vehicle (HCT-116 cells)	NAG-1 Induction (mRNA) Fold (NAG-1 [1]) [Fold]	also measured
CC1(C)OC(=O)C(c2cccc(F)c2)=C1c1ccc(S(C)(=O)=O)cc1 [DFU]	0.54 ± 0.091	1.0	–
CC1=C(CC(=O)O)c2cc(F)ccc2/C1=C\c1ccc(S(C)(=O)=O)cc1 [Sulindac Sulfone]	1.6 ± 0.043	1.3	–
CSc1ccc(/C=C2/C(C)=C(CC(=O)O)c3cc(F)ccc32)cc1 [Sulindac Sulfide]	4.3 ± 0.737	4.6	–
CC1=C(CC(=O)O)c2cc(F)ccc2/C1=C\c1ccc([S+](C)[O-])cc1 (stereo not shown) [Sulmdac, Sulindac]	1.1 ± 0.173	1.5	Induction of luciferase reporter activity (2021 bp NAG-1 promoter) (NAG-1 promoter): did not increase luciferase activity; NAG-1 expression induction (NAG-1 [1]): did not induce NAG-1 expression
CC(C)Cc1ccc(C(C)C(=O)O)cc1 (stereo not shown) [Ibuprofen]	4.3 ± 0.666	4.5	–
CCCCC/C=C/C=C1/C(=O)C=C[C@@H]1C/C=C\CCCC(=O)O [15d-PGJ2, 15-deoxy-Δ^12,14-prostaglandin J2]	–	–	Induction of NAG-1 gene expression (NAG-1 [1]; HCT-116, 1 μM): 3 fold
CC(=O)Oc1ccccc1C(=O)O [Aspirin]	3.5 ± 0.451	3.5	NAG-1 induction (NAG-1 [2]): high NAG-1 induction; NAG-1 induction (NAG-1 [3]): high NAG-1 induction; NAG-1 expression (NAG-1 [4]; 5 mM): significantly increased; NAG-1 induction (NAG-1 [4]; 10 mM): high NAG-1 induction; NAG-1 induction (NAG-1 [5]): high NAG-1 induction
Cc1ccc(-c2cc(C(F)(F)F)nn2-c2ccc(S(N)(=O)=O)cc2)cc1 [Celecoxib]	0.722 ± 0.098	1.0	–
CS(=O)(=O)Nc1ccc([N+](=O)[O-])cc1OC1CCCCC1 [NS-398]	1.029 ± 0.109	0.9	–
CC(=O)Nc1ccc(O)cc1 [Acetaminophen]	0.9 ± 0.153	0.9	Induction of luciferase reporter activity (2021 bp NAG-1 promoter) (NAG-1 promoter): did not increase luciferase activity; NAG-1 expression induction (NAG-1 [1]): did not induce NAG-1 expression
O=C([O-])c1ccccc1O.[Na+] [Sodium Salicylate]	1.8 ± 0.252	3.0	–
CN1C(C(=O)Nc2ccccn2)=C(O)c2ccccc2S1(=O)=O [Piroxicam]	1.9 ± 0.145	2.5	–
Cc1c(C)c2c(c(C)c1O)CCC(C)(COc1ccc(CC3SC(=O)NC3=O)cc1)O2 (stereo not shown) [TGZ, Troglitazone]	–	–	Time at which increase in NAG-1 protein was observed (NAG-1 [6]): 6 h; Earliest time at which apoptosis was observed (HCT-116 cells; HCT-116, presence of serum, TGZ 5 μM): 12 h; Time point at which G1 arrest was seen (HCT-116 cells; HCT-116, TGZ 5 μM): 12 h; Induction of luciferase reporter activity (2021 bp NAG-1 promoter) (NAG-1 promoter): 3 fold; Induction of NAG-1 gene expression (NAG-1 [1]; HCT-116, 5 μM): 3 fold; Earliest time at which increase in NAG-1 mRNA was observed (NAG-1 [1]; HCT-116, 5 μM TGZ): 3 h
O=C(O)Cc1ccccc1Nc1c(Cl)cccc1Cl [Diclofenac]	4.0 ± 0.315	3.7	–
